Blank lines part the entries; values can stand above or below the compound they belong to.
Legend:
Protein phosphatase 1D = biological target: T1, Protein phosphatase 1D (Homo sapiens, UniProt O15297); assay: Inhibition of human Wip1 (2 to 420 residues) expressed in baculovirus-infected insect SF9 cells assessed as fluorescein diphosphate hydrolysis after 5 mins by fluorescence assay
T1 sequence (O15297 whole entry): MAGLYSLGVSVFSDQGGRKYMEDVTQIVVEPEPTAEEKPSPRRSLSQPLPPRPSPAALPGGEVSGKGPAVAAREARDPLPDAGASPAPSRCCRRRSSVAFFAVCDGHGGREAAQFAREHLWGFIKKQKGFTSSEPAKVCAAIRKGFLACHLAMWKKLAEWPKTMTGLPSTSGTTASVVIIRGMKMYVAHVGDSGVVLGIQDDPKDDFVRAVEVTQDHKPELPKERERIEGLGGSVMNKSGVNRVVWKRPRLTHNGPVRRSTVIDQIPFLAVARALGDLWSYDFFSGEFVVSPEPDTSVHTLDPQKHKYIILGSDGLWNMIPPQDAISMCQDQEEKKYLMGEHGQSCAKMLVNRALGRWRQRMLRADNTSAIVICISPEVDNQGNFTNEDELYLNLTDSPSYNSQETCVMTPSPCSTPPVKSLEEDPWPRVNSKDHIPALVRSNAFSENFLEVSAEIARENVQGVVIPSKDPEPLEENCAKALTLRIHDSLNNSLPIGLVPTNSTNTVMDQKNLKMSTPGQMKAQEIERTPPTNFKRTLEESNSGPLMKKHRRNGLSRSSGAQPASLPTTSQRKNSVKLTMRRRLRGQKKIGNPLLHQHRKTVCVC

MAP kinase p38 = MAP kinase p38 (Homo sapiens, UniProt O15264+Q15759+Q16539+P53778); assay: Inhibition of p38 MAPK (unknown origin); format: protein assay
[1] = biological target: Proto-oncogene tyrosine-protein kinase Src (Gallus gallus, UniProt P00523); assay: Inhibition of chicken Src kinase domain using AEEEIYGEFAKKK as substrate by continuous spectrophotometric assay
[2] = Displacement of [3H]-3-(1-(3-chloro-6-isopropyl-8-(trifluoromethyl)imidazo[1,2-a]pyridine-2-carbonyl)piperidin-4-yl)oxazolidin-2-one from HCV genotype 1b C-terminal His6-tagged NS4B (1 to 261 residues) expressed in baculovirus infected insect SF9 cells; set-up: species or system Hepatitis C virus subtype 1b
Interleukin-2 = Interleukin-2 (Homo sapiens, UniProt P60568); assay: Binding affinity to human IL-2 measured over 30 mins by fluorescence polarization assay
Chain of Interleukin-2 (P60568 whole entry): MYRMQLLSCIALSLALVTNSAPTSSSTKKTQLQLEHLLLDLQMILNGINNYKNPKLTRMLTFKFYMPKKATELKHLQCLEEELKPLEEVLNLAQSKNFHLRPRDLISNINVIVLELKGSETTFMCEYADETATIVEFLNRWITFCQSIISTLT

[3] = Binding affinity to HSP70 (unknown origin) by surface plasmon resonance method; set-up: species or system Homo sapiens
[4] = biological target: T2, 2',5'-phosphodiesterase 12 (Homo sapiens, UniProt Q6L8Q7); assay: Inhibition of human PDE12 (17 to 609 residues) expresssed in Escherichia coli BL21(DE3) cells using 2-5A as substrate assessed as AMP monomers and ATP formation after 30 mins by AMP-Glo assay
T2 sequence (Q6L8Q7 whole entry): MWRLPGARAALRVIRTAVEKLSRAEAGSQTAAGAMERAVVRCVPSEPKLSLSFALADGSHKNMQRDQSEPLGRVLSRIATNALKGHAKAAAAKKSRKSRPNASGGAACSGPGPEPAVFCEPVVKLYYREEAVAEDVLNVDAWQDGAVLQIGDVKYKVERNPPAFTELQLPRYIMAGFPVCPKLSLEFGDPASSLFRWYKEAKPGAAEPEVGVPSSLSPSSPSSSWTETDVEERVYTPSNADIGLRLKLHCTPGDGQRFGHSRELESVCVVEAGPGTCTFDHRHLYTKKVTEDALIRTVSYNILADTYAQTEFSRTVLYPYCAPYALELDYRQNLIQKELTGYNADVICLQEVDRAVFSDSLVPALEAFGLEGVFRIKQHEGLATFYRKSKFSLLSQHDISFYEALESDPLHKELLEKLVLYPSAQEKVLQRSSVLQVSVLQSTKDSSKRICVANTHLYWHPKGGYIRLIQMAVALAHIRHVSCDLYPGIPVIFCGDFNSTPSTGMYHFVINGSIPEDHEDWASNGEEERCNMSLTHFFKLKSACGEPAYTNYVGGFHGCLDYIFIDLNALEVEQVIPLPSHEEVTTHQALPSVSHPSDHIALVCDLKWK

[5] = Binding affinity to human plasma AGP by isothermal titration calorimetry; format: ADME

SMILES: CNC(=O)C(Cc1ccc2c(c1)COC(C)(C)O2)Nc1nc(O)nc(-n2ccc3ccc(C(=O)N4CCCc5ccccc54)cc32)n1 (stereo not drawn)
IC50 (MAP kinase p38): 7 nM

SMILES: O=C(c1ccc2[nH]ccc2c1)N1CCC2(CCCN(c3ncc(-c4ccccc4)c(-c4ccc(Cl)cc4)n3)C2)CC1
IC50 [2]: 42 nM

SMILES: CCCC#Cc1ccc(C[C@@H](NC(=O)CCn2c(C)cc3ccccc32)C(=O)O)cc1
Kd (Interleukin-2): 4200 nM

SMILES: CCn1cc(-c2nc3cc(Br)c(C(=O)N4CCO[C@@H](c5ccc(F)cc5)[C@@H]4CO)cc3n2C)c2ccc(C#N)cc21
IC50 [4]: 0.8 nM

SMILES: Cc1ccc(S(=O)(=O)N(CC(=O)NCCOCCC(=O)NCCOCCC(=O)N[C@@H](CCCCNC(=O)/C=C/c2ccc(-c3ccccc3C(F)(F)F)o2)C(=O)O)c2ccccc2-c2ccccc2)cc1
Kd [5]: 5800 nM

Next, values leading:

IC50 (Protein phosphatase 1D): 6 nM
SMILES: Cc1ncc(Cl)cc1NCc1ccc(C(=O)N[C@@H](CC2CCCC2)C(=O)NC2CC2)s1

IC50 [1]: 4 nM
SMILES: O=C1/C=C\C(=O)N[C@@H](CC2CCCCC2)C(=O)N[C@@H](Cc2ccccc2)C(=O)N[C@@H](CCCNC(=O)c2cnccn2)C(=O)NCC[C@@H](C(=O)O)N1

Kd [3]: 0.64 nM
SMILES: NC(=O)C(CNC(=O)c1ccc2[nH]nc(Br)c2c1)NC(=O)c1cccc(NC(=O)CCC(=O)c2ccc(-c3ccccc3)cc2)c1 (stereo not drawn)

— ChEMBL document CHEMBL4425089, “Chemical Space of DNA-Encoded Libraries” (J Med Chem, 2016)
